From PubChem BioAssay AID1508591

Details: rat; liver microsomes; pH 7.4; 15.0 min; 1.0 µM

Going from NC(=O)C1CCN(c2ncc(-c3ccc(Br)cc3)s2)CC1 to CC(C)COc1ccc(-c2csc(N3CCC(C(N)=O)CC3)n2)cc1, the half-life rises from 3.6 min to 7.23 min (2-fold).

Compared with COCCNCc1ccc(-c2cc3nccc(Oc4ccc(NC(=S)NC(=O)Cc5ccc(F)cc5)cc4F)c3s2)nc1, COc1ccc(-c2nc3ccccc3s2)cc1NC(=O)c1ccc(F)cc1 is higher in half-life: 10.3 min for the first, over 30 min for the second.

Going from CCN(CC)S(=O)(=O)c1ccc(N2CCOCC2)c(NC(=O)c2[nH]c(C)c(C(C)=O)c2C)c1 to CC(=O)c1c(C)[nH]c(C(=O)Nc2ccc(C)c(S(=O)(=O)N3CCCCCC3)c2)c1C, the half-life falls from 5.49 min to 1.9 min (2.9-fold).

Compared with COC(=O)c1ccc2c(c1)nc1n2[C@@H](CNC(C)=O)COC1, CCN1CCC(N(Cc2ccc3c(c2)OCO3)C(=O)Nc2cc(Cl)ccc2C(=O)OC)CC1 is lower in half-life: over 30 min for the first, 6.72 min for the second.

First: Cc1ccnc(NC(=S)N2CCCC(Nc3cccc(C(F)(F)F)c3)C2)c1 (centres undefined)
Second: COc1ccnc(NC(=S)N2CCN(c3ccccc3C(F)(F)F)CC2)c1
The half-life of the first is 3.8-fold higher: 11 min for the first, 2.9 min for the second.

Going from Cc1cccc(-n2ccc(=O)c(C(=O)Nc3ccc(S(=O)(=O)Nc4nccs4)cc3)n2)c1 to Cc1ccc(NS(=O)(=O)c2cccc(C(=O)Nc3nc(-c4ccccc4)cs3)c2)cc1, the half-life falls from over 30 min to 6.7 min.

Compared with CCn1ncc(NC(=O)Cn2ncc3cc(-c4cccc(OC)c4)ccc32)n1, COc1ccc(Cn2c(CCC(=O)Nc3cc(C)cc(C)c3)nc3cccnc32)cc1 is 14-fold lower in half-life: 20.4 min for the first, 1.47 min for the second.

First: Cc1ccc(S(=O)(=O)NCc2ccccc2)cc1
Second: Cc1ccc(S(=O)(=O)Nc2ccc(F)cc2C(=O)Nc2nc(-c3ccccc3)cs2)cc1
The half-life of the first is 3-fold lower: 1 min for the first, 3 min for the second.

Going from Fc1ccc(CNc2ncnc3onc(-c4ccc(F)cc4)c23)cc1 to Brc1ccccc1-c1nc(NCc2ccc(-c3cccnc3)cc2)c2ccccc2n1, the half-life falls from 28 min to 6.55 min (4.3-fold).

Compared with NC(=O)C1CCN(c2nc(-c3ccccc3Cl)cs2)CC1, O=S(=O)(c1ccccc1)N1CCN(c2nc(-c3ccc(Br)cc3)cs2)CC1 is 6.9-fold higher in half-life: 4.02 min for the first, 27.7 min for the second.

First: CCOC(=O)C1CCN(c2ncc(-c3ccc4c(c3)OCCCO4)s2)CC1
Second: Cc1ccccc1C(=O)N1CCc2cc(-c3nc(NC(=O)Cc4ccc5c(c4)OCO5)sc3C)ccc21
The half-life of the first is 6.5-fold lower: 2.37 min for the first, 15.5 min for the second.

First: Cn1ccc2c(C(=O)NCc3cccnc3)nc(-c3ccccc3C#N)cc21
Second: CN1C(=O)c2ccccc2[S@](=O)c2ccc(C(=O)NCc3ccc(Br)cc3)cc21
The half-life of the first is 2.4-fold lower: 5.52 min for the first, 13 min for the second.

O=c1c2c([nH]c3ccc(Br)cc13)CCCC2 and CN(C(=O)CSc1nc2c(c(=O)[nH]1)CCCC2)c1ccccc1 are within 1.5-fold of each other in half-life: 15.9 min for the first, 13 min for the second.

Going from O=C(Nc1ccc(Cl)cc1)C(NS(=O)(=O)c1cccs1)c1ccccc1 (centres undefined) to Cc1ccc(NS(=O)(=O)c2ccccc2C(=O)Nc2nc(-c3ccccc3)cs2)cc1, the half-life rises from 5.38 min to 15 min (2.8-fold).

First: Cc1nn2c(c1-c1ccccc1-c1ccccc1)N(Cc1ccccc1)CCC2
Second: Cc1ccccc1C(=O)N1CCc2cc(-c3ccnc(NC(=O)Cc4ccccc4)n3)ccc21
The half-life of the first is 4.5-fold lower: 1.23 min for the first, 5.5 min for the second.

Cc1nc([N+](=O)[O-])cn1-c1ccc([N+](=O)[O-])cc1 and CC(=O)c1ccc(N2CCN(S(=O)(=O)c3ccc4[nH]c(=O)[nH]c4c3)CC2)cc1 cannot be ordered by half-life: over 30 min for the first, over 30 min for the second.

COc1ccc(CCNc2ncnc3c2c(-c2ccccc2)cn3-c2cccc(Cl)c2)cc1OC and CCOc1ccc(CCNC(=O)c2ccc3ccccc3n2)cc1OCC are within 1.5-fold of each other in half-life: 2.33 min for the first, 1.7 min for the second.

Compared with Cc1nc(Sc2nnnn2C)c2c(-c3ccccc3)csc2n1, COc1cc(Cl)ccc1C(=O)Nc1nc(-c2ccccc2)cs1 is 8.8-fold higher in half-life: 1.6 min for the first, 14 min for the second.

CC1(C)C[C@@H]2C[C@@](C)(CN2S(=O)(=O)c2ccc(C(=O)Nc3ccc(Cl)c(S(=O)(=O)N4CCOCC4)c3)cc2)C1 and CC(C)(N)C(=O)N[C@H](COCc1ccccc1)C(=O)N1CCC2(CC1)CN(S(C)(=O)=O)c1ccccc12 are within 1.5-fold of each other in half-life: 3.95 min for the first, 4.99 min for the second.

CC(C)(C)CC(C)(C)c1ccc(O)cc1 and Cc1sc2c(c1C)C(c1ccc(Cl)cc1)=N[C@@H](CC(=O)OC(C)(C)C)c1nnc(C)n1-2 are within 1.5-fold of each other in half-life: 5.8 min for the first, 6.4 min for the second.

Going from CCN(CC)S(=O)(=O)c1ccc2oc(C(=O)Nc3ccc(Br)cc3F)c(C)c2c1 to CC(=O)c1c(C)[nH]c(C(=O)Nc2cccc([S+](=O)([O-])Nc3c(C)cccc3C)c2)c1C, the half-life falls from 7.91 min to 5 min (1.6-fold).

First: Cc1cccc2nc(-c3cccnc3)c(Nc3ccc(C(C)C)cc3)n12
Second: CCc1cccc(C)c1Nc1c(-c2ccc(N(C)C)cc2)nc2ncccn12
The half-life of the first is 4.2-fold lower: 1 min for the first, 4.23 min for the second.

Going from CC(C)n1cc(-c2ccc3c(c2)N(C)CC3)c2c(NS(=O)(=O)c3ccn(C)n3)ccnc21 to Cc1ccc(N2CCC(CNc3nc(-c4ccccc4C(C)C)ncc3C)CC2)cn1, the half-life rises from 1.07 min to 2.6 min (2.4-fold).

Compared with CCc1nc2c(sc3nc4c(cc32)COC(C)(C)C4)c(=O)n1Cc1ccco1, Cc1ccc2nc(NC3=NC(c4[nH]ncc4Cl)C4=C(CCCC4=O)N3)oc2c1 (centres undefined) is 2.3-fold higher in half-life: 6.88 min for the first, 15.8 min for the second.

Compared with O=C1Nc2ccccc2/C1=C/c1ccc[nH]1, Cc1ccc2[nH]c(-c3ccccc3)cc(=O)c2c1 is 3.1-fold higher in half-life: 5.1 min for the first, 15.9 min for the second.

O=C1C(SCCO)=C(SCCO)C(=O)c2ccccc21 and COc1oc(-c2cccc3ccccc23)nc1C(=O)O cannot be ordered by half-life: over 30 min for the first, over 30 min for the second.

Going from CCc1ccc(NC(=O)CSC2=Nc3ccccc3C3=NC(CC(=O)NCc4ccc5c(c4)OCO5)C(=O)N23)cc1 (centres undefined) to CCc1ccc(S(=O)(=O)Nc2cnccc2C(=O)Nc2nc(-c3ccccc3)cs2)cc1, the half-life rises from 2.86 min to 4.4 min (1.5-fold).

Going from CCOc1ccc(CCNC(=O)c2cc3c(s2)CCC3)cc1OCC to CN1CCCC1CCOC(c1cc2nccc(C(=O)O)c2[nH]1)c1ccccc1Cl (centres undefined), the half-life rises from 1.6 min to over 30 min.

O=C(Nc1cccnc1)c1cccs1 and Cc1ccc(-c2cc(C(=O)Nc3ccncc3)c3ccccc3n2)cc1 cannot be ordered by half-life: over 30 min for the first, over 30 min for the second.

Compared with COc1ccccc1N1CCN(C2CCCCC2NS(=O)(=O)c2ccccc2)CC1 (centres undefined), COc1cc(N2CCC(N3CCN(C)CC3)CC2)ccc1Nc1ncc(Cl)c(Nc2ccccc2P(C)(C)=O)n1 is higher in half-life: 1.69 min for the first, over 30 min for the second.

Going from C[C@]12CC[C@@H]3[C@H](CCC4=CC(=O)CC[C@]43C)[C@]1(O)CC[C@@]2(O)C(=O)CO to C[C@@]1(O)[C@H](O)[C@@H](CO)O[C@H]1n1ccc(N)nc1=O, the half-life rises from 20.9 min to over 30 min.

Cc1nn(CCc2nc(-c3ccc4ccccc4c3)cs2)c2[nH]c(=O)cc(C(F)(F)F)c12 and FC(F)(F)c1ccccc1-c1nc(NCc2cccc3ccccc23)c2ccccc2n1 are within 1.5-fold of each other in half-life: 6.4 min for the first, 4.33 min for the second.

Going from Nc1nc2c(s1)C(c1cccc(F)c1F)CC(=O)N2 (centres undefined) to O=C1CCCC2=C1C1(CCSC1)N=C(Nc1nc3ccccc3o1)N2 (centres undefined), the half-life falls from over 30 min to 2.5 min.

Compared with CN(C)c1ccc(-c2cc[nH]c(=O)c2N)cc1, Cc1ccc(S(=O)(=O)Nc2cnccc2C(=O)Nc2nc(-c3cccnc3)cs2)cc1 is lower in half-life: over 30 min for the first, 7.7 min for the second.

Compared with COc1cccc(Cn2c(=O)n(-c3cccc(Cl)c3C)c(=O)c3c4c(sc32)CN(C(C)=O)CC4)c1, COc1cc(NS(=O)(=O)c2ccc(C)cc2)cc(C(=O)Nc2nc(-c3ccccc3)cs2)c1 is 4.1-fold higher in half-life: 3.17 min for the first, 13 min for the second.

Compared with COc1ccc(OC)c(CNc2ncnc3onc(C)c23)c1, COc1ccccc1C(=O)Nc1ccccc1C(=O)Nc1cccc(SC(F)(F)F)c1 is 3.2-fold higher in half-life: 5.68 min for the first, 18 min for the second.

N#Cc1ccc(N2N=C3c4ccc(C(=O)O)cc4CC[C@@H]3[C@@H]2C2CCCC2)cc1Cl and CCOc1ccccc1C(=O)Nc1ccccc1C(=O)Nc1cccc(S(=O)(=O)C(F)(F)F)c1 cannot be ordered by half-life: over 30 min for the first, over 30 min for the second.
